Test results: patent US7740775B2, “Method for the production of particles” (priority 2001, dated 2010)

Experiment: Particle size of the isolated crystalline product observed under a microscope
[1] = two-stage mixing with two HFC 134A streams (FIG. 6 nozzle), no surfactant
[2] = two-stage mixing, co-precipitation of salicylic acid (20% w/v) and adipic acid (3% w/v) from acetone

Row | particle size [2] | SMILES | particle size range [1] | other results
1 |  | CC(=O)Nc1ccc(O)cc1 [paracetamol, N-acetyl-p-aminophenol, reference compound] |  | particle size (two-stage mixing, HFC 134A, 8% w/v in methanol with 1% w/w Brij 30): < 3 micron
2 |  | O=[N+]([O-])[O-].[Ag+] [silver nitrate] | ≤ 3 microns | 
3 | around 10 microns | O=C(O)CCCCC(=O)O [adipic acid, hexanedioic acid] | 10-20 microns | particle size range (comparative single-stage mixing with one HFC 134A stream, no surfactant): 20-100 microns; particle size range (single-stage mixing, HFC 134A, 1% w/w Antorox B12 DF surfactant): 20-200 microns; particle size (single-stage mixing, HFC 134A, 1% w/w Brij 30 added to 10% w/v solution in ethanol): < 10 micron
4 | below 3 microns | O=C(O)c1ccccc1O [salicylic acid] |  | 
